According to patent US20250074919A1, “Heteroaryl compounds as inhibitors of irak4, compositions and applications thereof” (Accro Bioscience (HK) Limited, priority 2021, published 2025):

What was measured:
IRAK4 [1] = target: T1, IRAK4 (Homo sapiens (Human), UniProt Q9NWZ3); experiment: Screening the compounds against IRAK4 with ATP (Caliper, FAM-labeled peptide); format: biochemical; conditions: for IC50: read-out: IC50 (nM) (10 μM ATP), IRAK4 kinase, 10 μM ATP
Method in brief: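 Reactions ran at 28° C after adding peptide and ATP, following a 10 min room-temperature enzyme-compound preincubation in HEPES pH 7.5/Brij-35 buffer; EDTA stop.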

IRAK4 [2] = target: T1, IRAK4; experiment: Kinase binding ability (KINOMEscan site-directed competition binding assay); conditions: for Kd: Kd between IRAK4 and compound
Protocol: The Equilibrium dissociation constant reflected the test compound's kinase binding (Kd). The KINOMEscan, a site-directed competition binding assay, was used to measure interactions between test compounds and specific kinases. The kinase-tagged T7 phage strains were derived from the BL21 strain's E. coli host. T7 phage was used to infect E. coli, which was then incubated until lysis occurred. The remaining kinases were produced in HEK-293 cells and tagged with DNA. To create affinity resins for kinase, streptavidin-coated magnetic beads were treated with biotinylated small molecule ligands. The assay consists of three components: a DNA-tagged kinase, an immobilized ligand, and the test compound. An immobilized ligand could compete with the compound binding the kinase active site. The affinity beads were washed with wash buffer and re-suspended in elution buffer following reactions in a polypropylene 384-well plate. qPCR of the kinase-DNA tag was used to assess the test compound's ability to bind with the selected kinase. The assay was carried out in accordance with the manufacturer's instructions (Eurofins DiscoverX Corporation).
Binding constants (Kd) were calculated with a standard dose-response curve using the Hill equation: […]

[3] = Metabolic stability in human liver microsomes; format: in vitro ADME; conditions: for half-life: NADPH, 37° C., read-out: Human microsome (t1/2)
Protocol: (§1) The appropriate concentrations of microsomes working solutions (0.56 mg/mL) were prepared in potassium phosphate buffer. The test compounds were incubated with Human, SD Rat, CD-1 Mouse and Beagle Dog liver microsomes for 10 min at 37° C. with constant shaking. The reaction was initiated by the addition of nicotinamide adenine dinucleotide phosphate (NADPH) cofactor after a 10 min pre-incubation. At 5, 15, 30, 45, and 60 min, the samples were taken and placed into the stop solution (Cold acetonitrile containing 200 ng/mL tolbutamide and 200 ng/mL labetalol as internal standards). All sampling plates were shaken for 10 min, then centrifuged at 4000 rpm for 20 minutes at 4° C. Each supernatant of bioanalysis plate was sealed and shaken for 10 minutes prior to LC-MS analysis.

[4] = Metabolic stability in rat liver microsomes; format: in vitro ADME, SD Rat; conditions: for half-life: SD rat liver microsomes, NADPH, 37° C., read-out: Rat microsome (t1/2)
Protocol: as §1

[5] = Metabolic stability in mouse liver microsomes; format: in vitro ADME, CD-1 Mouse; conditions: for half-life: CD-1 mouse liver microsomes, NADPH, 37° C., read-out: Mouse microsome (t1/2)
Protocol: as §1

[6] = Metabolic stability in dog liver microsomes; format: in vitro ADME, Beagle Dog; conditions: for half-life: Beagle dog liver microsomes, NADPH, 37° C., read-out: Dog microsome (t1/2)
Protocol: as §1

[7] = Pharmacokinetics study in ICR mice; format: in vivo; conditions: for clearance rate (in words) / half-life (in words) / oral absorption (in words) / oral exposure and bioavailability (in words): mice; for clearance rate (in words) / half-life (in words): administered intravenously; for oral absorption (in words) / oral exposure and bioavailability (in words): oral administration; for Vd / clearance / half-life / AUC / bioavailability / Cmax / Tmax: mouse, plasma, male ICR mice; for AUC: zero to 24 hours; for bioavailability: oral, p.o.: 10 mg/kg vs i.v.: 2 mg/kg
Protocol: Solution used:10% DMSO+10% Solutol+80% (20% Hp-β-CD)
Single dose pharmacokinetic parameters were determined at Medicilon using male ICR mice (3 […] per group, 2 groups). Groups were dosed i.v. (2 mg/kg) or p.o. (10 mg/kg) and blood samples were taken via submandibular or saphenous vein at the following time points post dosing: 0.083 (i.v. only), 0.25, 0.5, 1, 2, 4, 6 (p.o. only), 8 and 24 h. An aliquot of 50 μL of blood plasma was protein precipitated with 250 μL internal standard solution (200 ng/mL tolbutamide in MeOH), the mixture was vortex-mixed for 1 min and centrifuged at 14,000 rpm for 5 min. The concentration of the test compound in the plasma samples was determined using LC-MS/MS with the peak areas compared to a calibration curve determined using 5-5000 ng/mL test compound in ICR mice plasma. […] Cmax represents peak plasma concentration of the drug; Tmax represents the time to reach Cmax; T1/2 represents elimination half-life or the time taken for Cmax to drop in half; Cl represents clearance; Vd represents apparent volume of distribution; F represents bioavailability; p.o. represents oral administration; and i.v. represents intravenous injection.

T1 sequence (Q9NWZ3 whole entry): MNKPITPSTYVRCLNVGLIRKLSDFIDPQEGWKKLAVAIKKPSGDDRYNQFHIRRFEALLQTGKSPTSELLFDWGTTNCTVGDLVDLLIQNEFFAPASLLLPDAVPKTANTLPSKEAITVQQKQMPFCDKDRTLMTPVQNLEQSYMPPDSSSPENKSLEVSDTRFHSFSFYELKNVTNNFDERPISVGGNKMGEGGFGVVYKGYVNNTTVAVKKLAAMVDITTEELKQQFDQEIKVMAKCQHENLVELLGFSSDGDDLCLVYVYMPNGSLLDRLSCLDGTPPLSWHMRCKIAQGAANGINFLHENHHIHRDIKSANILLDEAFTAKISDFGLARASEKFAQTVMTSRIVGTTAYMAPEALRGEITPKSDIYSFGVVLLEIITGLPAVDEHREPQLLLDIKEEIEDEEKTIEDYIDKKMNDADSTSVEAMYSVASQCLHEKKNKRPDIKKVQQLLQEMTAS

SMILES	IC50 (IRAK4 [1]) [nM]	binding affinities to IRAK4 (in words) (IRAK4 [2])	Kd (IRAK4 [2]) [nM]	metabolic stability in liver microsomes of human (in words) [3]	half-life [3] [h]	half-life [4] [h]	metabolic stability in liver microsomes of rat (in words) [4]	half-life [5] [h]	metabolic stability in liver microsomes of mouse (in words) [5]	half-life [6] [h]	metabolic stability in liver microsomes of dog (in words) [6]	clearance rate (in words) [7]	half-life (in words) [7]	oral absorption (in words) [7]	oral exposure and bioavailability (in words) [7]	Vd ([7]; iv, i.v.: 2 mg/kg) [L/kg]	clearance ([7]; iv, i.v.: 2 mg/kg) [mL/min/kg]	half-life ([7]; iv, i.v.: 2 mg/kg) [h]	AUC ([7]; iv, i.v.: 2 mg/kg) [ng·h/mL]	bioavailability [7] [%]	also measured
Cn1cc(-c2cccc(NC(=O)c3cc4c(nc3N3CCC(O)CC3)OC(C)(C)C4)n2)cn1 [Compound B5, 6-(4-Hydroxypiperidin-1-yl)-2,2-dimethyl-N-(6-(1-methyl-1H-pyrazol-4-yl)pyridin-2-yl)-2,3-dihydrofuro[2,3-b]pyridine-5-carboxamide]	7.6	high binding affinities	0.69	good metabolic stability	> 2.42	> 2.42	good metabolic stability	1.18	moderate metabolic stability	> 2.42	good metabolic stability	low clearance rate	good half-life	well absorbed orally	extremely high oral exposure and bioavailability	3.6	13.6	3.1	2450	91	Cmax ([7]; po, p.o.: 10 mg/kg): 1460 ng/mL; Tmax ([7]; po, p.o.: 10 mg/kg): 2 h; AUC ([7]; po, p.o.: 10 mg/kg): 9990 ng·h/mL
Cn1cc(-c2cccc(NC(=O)c3cc4oc(N5CCOCC5)nc4nc3N3CCC(O)CC3)n2)cn1 [Compound A4, 5-(4-hydroxypiperidin-1-yl)-N-(6-(1-methyl-1H-pyrazol-4-yl)pyridin-2-yl)-2-morpholinooxazolo[4,5-b]pyridine-6-carboxamide]	11	high binding affinities	0.59	good metabolic stability	> 2.42	1.53	good metabolic stability	> 2.42	good metabolic stability	1.7	good metabolic stability	low clearance rate	good half-life	well absorbed orally	extremely high oral exposure and bioavailability	0.98	8.1	1.4	4050	130	activity, times better than that of the positive control compound CA4948 (IRAK4 [1]; IRAK4 kinase inhibition relative to CA4948): more than 10 times; Cmax ([7]; po, p.o.: 10 mg/kg): 8580 ng/mL; Tmax ([7]; po, p.o.: 10 mg/kg): 1.17 h; AUC ([7]; po, p.o.: 10 mg/kg): 26400 ng·h/mL
